Activity calls are given as the source filed them. The rule behind the calls is not given here.
Experiments:
Histone deacetylase 4 = Histone deacetylase 4 (Homo sapiens, UniProt P56524); experiment: Inhibition of HDAC4 (unknown origin)
Histone deacetylase 11 = biological target: T1, Histone deacetylase 11 (Homo sapiens, UniProt Q96DB2); experiment: Inhibition of recombinant human HDAC11 preincubated for 10 mins followed by substrate addition by fluorescence based analysis
T1 sequence (Q96DB2 whole entry): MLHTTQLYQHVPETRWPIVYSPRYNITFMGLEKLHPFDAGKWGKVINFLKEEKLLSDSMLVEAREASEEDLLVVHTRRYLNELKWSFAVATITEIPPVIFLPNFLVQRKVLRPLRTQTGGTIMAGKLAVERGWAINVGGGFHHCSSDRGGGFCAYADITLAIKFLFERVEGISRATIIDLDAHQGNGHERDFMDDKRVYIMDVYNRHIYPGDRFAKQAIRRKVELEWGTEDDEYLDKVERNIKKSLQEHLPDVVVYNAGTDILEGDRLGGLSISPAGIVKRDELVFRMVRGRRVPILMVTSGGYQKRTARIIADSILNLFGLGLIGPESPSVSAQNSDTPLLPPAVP

Histone deacetylase 8 [1] = biological target: T2, Histone deacetylase 8 (Homo sapiens, UniProt Q9BY41); experiment: Competitive inhibition of human HDAC8 using Abz-SRGGK(STFA)FFRR-NH2 (S) as substrate by Lineweaver-burk plot analysis
T2 sequence (Q9BY41 whole entry): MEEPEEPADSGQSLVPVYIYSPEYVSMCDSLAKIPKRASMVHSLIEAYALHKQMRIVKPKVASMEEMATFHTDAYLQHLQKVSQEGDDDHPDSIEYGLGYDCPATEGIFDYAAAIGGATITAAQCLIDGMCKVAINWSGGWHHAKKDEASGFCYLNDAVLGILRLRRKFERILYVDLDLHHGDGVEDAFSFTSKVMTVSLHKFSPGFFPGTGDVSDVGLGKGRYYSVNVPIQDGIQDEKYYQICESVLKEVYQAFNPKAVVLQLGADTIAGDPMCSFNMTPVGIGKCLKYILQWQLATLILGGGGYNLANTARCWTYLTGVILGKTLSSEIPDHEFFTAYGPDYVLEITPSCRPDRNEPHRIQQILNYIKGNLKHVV

[2] = Stability of compound in DMEM/DMSO/acetonitrile at pH 7.4 measured after 72 hrs by HPLC analysis; type: physicochemical; conditions: read-out: Stability
HEK293 [3] = experiment: Cytotoxicity against HEK293 cells assessed as reduction in cell viability at 50 uM after 24 hrs by alamar blue assay; type: toxicity, cell-based; conditions: human, hek293, 24 h
[4] = biological target: T3, Histone deacetylase 8 (Homo sapiens) (UniProt Q9BY41); experiment: Reversible binding affinity to recombinant human HDAC8 incubated for 30 mins by jump dilution method
T3 sequence (whole entry): T2 sequence (Q9BY41 whole entry)

Histone deacetylase 3 [5] = biological target: T4, Histone deacetylase 3 (Homo sapiens, UniProt O15379); experiment: Inhibition of recombinant human HDAC3 using p53 (Ac-RHKK(Acetyl)-AMC) as substrate preincubated for 5 mins followed by substrate addition and measured after 30 mins by fluorescence based analysis
T4 sequence (O15379 whole entry): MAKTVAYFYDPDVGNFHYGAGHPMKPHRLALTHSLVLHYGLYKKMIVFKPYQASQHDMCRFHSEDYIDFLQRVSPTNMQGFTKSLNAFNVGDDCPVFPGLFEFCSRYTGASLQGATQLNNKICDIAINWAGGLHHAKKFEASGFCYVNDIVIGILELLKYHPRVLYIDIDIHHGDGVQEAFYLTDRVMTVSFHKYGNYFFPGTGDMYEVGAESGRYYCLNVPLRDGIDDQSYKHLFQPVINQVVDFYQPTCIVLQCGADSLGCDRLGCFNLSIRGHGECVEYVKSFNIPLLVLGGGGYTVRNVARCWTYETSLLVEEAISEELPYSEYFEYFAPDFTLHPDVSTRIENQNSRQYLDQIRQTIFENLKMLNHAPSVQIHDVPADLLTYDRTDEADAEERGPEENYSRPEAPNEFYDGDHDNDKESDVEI

Histone deacetylase 2 [6] = biological target: T5, Histone deacetylase 2 (Homo sapiens, UniProt Q92769); experiment: Inhibition of recombinant human HDAC2 using p53 (Ac-RHKK(Acetyl)-AMC) as substrate preincubated for 5 mins followed by substrate addition and measured after 30 mins by fluorescence based analysis
T5 sequence (Q92769 whole entry): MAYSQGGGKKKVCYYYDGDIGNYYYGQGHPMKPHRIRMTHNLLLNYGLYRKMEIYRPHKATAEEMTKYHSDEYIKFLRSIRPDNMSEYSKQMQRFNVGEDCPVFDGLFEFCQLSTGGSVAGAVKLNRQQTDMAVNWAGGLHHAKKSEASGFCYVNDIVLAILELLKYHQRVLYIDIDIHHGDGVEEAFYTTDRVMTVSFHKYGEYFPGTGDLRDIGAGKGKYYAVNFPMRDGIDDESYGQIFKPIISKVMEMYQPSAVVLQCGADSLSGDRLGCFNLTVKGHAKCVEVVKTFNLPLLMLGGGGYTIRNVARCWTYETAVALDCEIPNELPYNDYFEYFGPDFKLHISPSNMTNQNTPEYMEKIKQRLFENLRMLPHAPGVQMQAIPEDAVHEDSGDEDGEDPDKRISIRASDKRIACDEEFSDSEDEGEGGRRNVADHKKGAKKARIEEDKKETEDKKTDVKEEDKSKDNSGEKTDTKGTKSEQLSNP

[7] = Stability of compound in DMEM/DMSO/acetonitrile at pH 7.4 measured after 12 hrs by HPLC analysis; type: physicochemical; conditions: read-out: Stability
[8] = Stability of compound in DMEM/DMSO/acetonitrile at pH 7.4 measured after 48 hrs by HPLC analysis; type: physicochemical; conditions: read-out: Stability
[9] = Stability of compound in DMEM/DMSO/acetonitrile at pH 7.4 measured after 6 hrs by HPLC analysis; type: physicochemical; conditions: read-out: Stability
[10] = biological target: T6, Protein deacetylase HDAC6 (Homo sapiens, UniProt Q9UBN7); experiment: Inhibition of recombinant human HDAC6 (unknown origin)
T6 sequence (Q9UBN7 whole entry): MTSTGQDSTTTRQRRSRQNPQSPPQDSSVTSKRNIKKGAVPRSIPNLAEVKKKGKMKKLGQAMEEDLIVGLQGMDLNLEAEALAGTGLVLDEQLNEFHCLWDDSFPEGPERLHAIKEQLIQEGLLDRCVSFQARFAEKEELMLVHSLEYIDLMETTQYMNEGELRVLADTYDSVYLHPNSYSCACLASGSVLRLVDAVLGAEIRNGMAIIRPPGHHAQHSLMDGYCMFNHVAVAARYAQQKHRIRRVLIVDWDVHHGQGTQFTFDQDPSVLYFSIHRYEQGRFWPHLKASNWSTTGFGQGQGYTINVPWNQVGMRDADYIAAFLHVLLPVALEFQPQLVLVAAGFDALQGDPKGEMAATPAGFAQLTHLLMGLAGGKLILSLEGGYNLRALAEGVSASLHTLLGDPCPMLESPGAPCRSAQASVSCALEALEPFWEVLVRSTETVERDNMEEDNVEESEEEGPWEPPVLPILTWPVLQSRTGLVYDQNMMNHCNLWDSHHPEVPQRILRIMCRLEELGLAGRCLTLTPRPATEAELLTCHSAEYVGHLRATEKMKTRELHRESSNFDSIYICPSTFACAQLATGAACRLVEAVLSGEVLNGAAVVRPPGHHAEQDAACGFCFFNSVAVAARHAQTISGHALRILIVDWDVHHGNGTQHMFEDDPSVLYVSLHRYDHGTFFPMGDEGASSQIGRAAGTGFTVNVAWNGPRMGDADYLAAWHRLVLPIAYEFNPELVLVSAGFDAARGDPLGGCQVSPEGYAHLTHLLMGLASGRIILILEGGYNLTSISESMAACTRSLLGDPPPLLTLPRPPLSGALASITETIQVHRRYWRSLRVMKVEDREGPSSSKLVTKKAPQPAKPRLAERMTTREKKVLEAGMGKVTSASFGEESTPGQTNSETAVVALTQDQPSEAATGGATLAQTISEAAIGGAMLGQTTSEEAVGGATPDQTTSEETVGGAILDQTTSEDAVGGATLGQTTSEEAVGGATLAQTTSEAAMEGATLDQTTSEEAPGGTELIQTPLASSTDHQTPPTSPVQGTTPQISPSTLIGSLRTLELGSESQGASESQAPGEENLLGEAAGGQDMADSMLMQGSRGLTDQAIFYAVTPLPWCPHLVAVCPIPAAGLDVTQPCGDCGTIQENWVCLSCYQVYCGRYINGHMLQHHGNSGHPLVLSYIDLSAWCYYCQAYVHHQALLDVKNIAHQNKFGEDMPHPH

[11] = Stability of compound in DMEM/DMSO/acetonitrile at pH 7.4 measured after 24 hrs by HPLC analysis; type: physicochemical; conditions: read-out: Stability
[12] = biological target: T3, Histone deacetylase 8 (Homo sapiens); experiment: Inhibition of HDAC8 in human Jurkat T cells assessed as increase in H3K27 acetylation at 10 uM after 6 hrs by Western blot analysis; type: cell-based
Histone deacetylase 8 [13] = biological target: T2, Histone deacetylase 8; experiment: Inhibition of recombinant human HDAC8 using (Abz-SRGK(thio-TFA)FFRR-NH2) as substrate preincubated for 5 mins followed by substrate addition by fluorescence based analysis
Histone deacetylase 1 [14] = biological target: T7, Histone deacetylase 1 (Homo sapiens, UniProt Q13547); experiment: Inhibition of recombinant human HDAC1 using p53 (Ac-RHKK(Acetyl)-AMC) as substrate preincubated for 5 mins followed by substrate addition and measured after 90 mins by fluorescence based analysis
T7 sequence (Q13547 whole entry): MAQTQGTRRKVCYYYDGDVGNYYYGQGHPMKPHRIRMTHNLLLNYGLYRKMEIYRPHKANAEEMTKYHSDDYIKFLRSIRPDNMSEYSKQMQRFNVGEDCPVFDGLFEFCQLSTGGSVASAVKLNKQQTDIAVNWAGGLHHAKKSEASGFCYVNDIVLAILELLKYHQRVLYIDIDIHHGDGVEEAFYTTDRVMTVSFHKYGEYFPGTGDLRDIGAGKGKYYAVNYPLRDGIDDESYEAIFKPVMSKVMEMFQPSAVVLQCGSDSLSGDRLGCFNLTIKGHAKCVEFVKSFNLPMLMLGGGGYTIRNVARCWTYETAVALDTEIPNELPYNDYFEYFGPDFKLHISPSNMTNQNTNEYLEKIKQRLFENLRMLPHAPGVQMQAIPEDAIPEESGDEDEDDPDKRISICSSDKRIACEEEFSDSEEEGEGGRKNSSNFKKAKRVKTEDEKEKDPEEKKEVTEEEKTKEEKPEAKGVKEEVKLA

HEK293 [15] = experiment: Cytotoxicity against HEK293 cells assessed as reduction in cell viability after 24 hrs by alamar blue assay; type: functional, cell-based; conditions: Homo sapiens, HEK293, 24 h
Histone deacetylase 2 [16] = biological target: T5, Histone deacetylase 2; experiment: Inhibition of recombinant human HDAC2 at 1 uM using p53 (Ac-RHKK(Acetyl)-AMC) as substrate preincubated for 5 mins followed by substrate addition and measured after 30 mins by fluorescence based analysis relative to control; conditions: time 35.0 min
Histone deacetylase 3 [17] = biological target: T4, Histone deacetylase 3; experiment: Inhibition of recombinant human HDAC3 at 1 uM using p53 (Ac-RHKK(Acetyl)-AMC) as substrate preincubated for 5 mins followed by substrate addition and measured after 30 mins by fluorescence based analysis relative to control; conditions: time 35.0 min
[18] = biological target: T3, Histone deacetylase 8 (Homo sapiens); experiment: Inhibition of recombinant human HDAC8 at 10 uM using (Abz-SRGK(thio-TFA)FFRR-NH2) as substrate preincubated for 5 mins followed by substrate addition by fluorescence based analysis relative to control
Histone deacetylase 1 [19] = biological target: T7, Histone deacetylase 1; experiment: Inhibition of recombinant human HDAC1 at 10 uM using p53 (Ac-RHKK(Acetyl)-AMC) as substrate preincubated for 5 mins followed by substrate addition and measured after 90 mins by fluorescence based analysis relative to control; conditions: time 95.0 min
Histone deacetylase 3 [20] = biological target: T4, Histone deacetylase 3; experiment: Inhibition of recombinant human HDAC3 at 10 uM using p53 (Ac-RHKK(Acetyl)-AMC) as substrate preincubated for 5 mins followed by substrate addition and measured after 30 mins by fluorescence based analysis relative to control; conditions: time 35.0 min
[21] = biological target: T3, Histone deacetylase 8 (Homo sapiens); experiment: Inhibition of recombinant human HDAC8 at 1 uM using (Abz-SRGK(thio-TFA)FFRR-NH2) as substrate preincubated for 5 mins followed by substrate addition by fluorescence based analysis relative to control
Histone deacetylase 1 [22] = biological target: T7, Histone deacetylase 1; experiment: Inhibition of recombinant human HDAC1 at 1 uM using p53 (Ac-RHKK(Acetyl)-AMC) as substrate preincubated for 5 mins followed by substrate addition and measured after 90 mins by fluorescence based analysis relative to control; conditions: time 95.0 min
Histone deacetylase 2 [23] = biological target: T5, Histone deacetylase 2; experiment: Inhibition of recombinant human HDAC2 at 10 uM using p53 (Ac-RHKK(Acetyl)-AMC) as substrate preincubated for 5 mins followed by substrate addition and measured after 30 mins by fluorescence based analysis relative to control; conditions: time 35.0 min

Histone deacetylase 4, sequence (P56524 whole entry): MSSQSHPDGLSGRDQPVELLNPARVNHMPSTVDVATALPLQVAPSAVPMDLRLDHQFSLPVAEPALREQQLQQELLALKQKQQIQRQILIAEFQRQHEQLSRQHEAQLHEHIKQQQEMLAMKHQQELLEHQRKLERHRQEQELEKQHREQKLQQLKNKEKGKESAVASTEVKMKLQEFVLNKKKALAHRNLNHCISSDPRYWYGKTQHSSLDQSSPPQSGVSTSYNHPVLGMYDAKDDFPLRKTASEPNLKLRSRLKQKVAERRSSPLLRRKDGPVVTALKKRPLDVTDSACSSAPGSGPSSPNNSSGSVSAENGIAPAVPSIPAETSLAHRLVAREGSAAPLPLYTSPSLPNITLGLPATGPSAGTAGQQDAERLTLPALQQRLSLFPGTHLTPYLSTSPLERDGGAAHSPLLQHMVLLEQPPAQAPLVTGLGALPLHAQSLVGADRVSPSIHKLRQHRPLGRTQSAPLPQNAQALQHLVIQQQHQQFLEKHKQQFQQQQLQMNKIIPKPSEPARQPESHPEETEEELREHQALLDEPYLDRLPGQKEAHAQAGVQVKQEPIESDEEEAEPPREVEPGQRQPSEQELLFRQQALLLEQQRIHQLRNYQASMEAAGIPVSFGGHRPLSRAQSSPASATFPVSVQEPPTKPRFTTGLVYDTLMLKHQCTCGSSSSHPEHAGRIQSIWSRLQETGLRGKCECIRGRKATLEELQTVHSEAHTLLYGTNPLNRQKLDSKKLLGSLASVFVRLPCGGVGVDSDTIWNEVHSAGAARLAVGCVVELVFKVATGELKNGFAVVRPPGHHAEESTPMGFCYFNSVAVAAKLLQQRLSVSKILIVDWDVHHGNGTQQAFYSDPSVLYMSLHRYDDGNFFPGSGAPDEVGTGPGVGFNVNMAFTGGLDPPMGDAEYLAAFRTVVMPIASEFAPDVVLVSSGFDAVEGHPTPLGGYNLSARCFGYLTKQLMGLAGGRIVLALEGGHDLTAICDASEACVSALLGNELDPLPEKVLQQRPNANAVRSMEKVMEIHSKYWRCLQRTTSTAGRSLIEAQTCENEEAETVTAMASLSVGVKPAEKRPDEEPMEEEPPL

Row | Compound | IC50 (Histone deacetylase 4) | IC50 (Histone deacetylase 11) | remaining at 72 h [2] | IC50 (Histone deacetylase 3 [5]) | IC50 (Histone deacetylase 2 [6]) | remaining at 12 h [7] | remaining at 48 h [8] | remaining at 6 h [9] | IC50 [10] | remaining at 24 h [11] | IC50 (Histone deacetylase 8 [13]) | IC50 (Histone deacetylase 1 [14]) | inhibition (Histone deacetylase 2 [16]) | inhibition (Histone deacetylase 3 [17]) | inhibition [18] | inhibition (Histone deacetylase 1 [19]) | inhibition (Histone deacetylase 3 [20]) | inhibition [21] | inhibition (Histone deacetylase 1 [22]) | Cell viability (HEK293 [3]) | further results
1 | CCCNNC(=O)c1cnc(N2CCN(Cc3c[nH]c4ccccc34)CC2)nc1 | > 20000 nM | 570 nM | 31.1% | 30 nM | 1100 nM | 83.3% | 27.1% | 81.7% | > 20000 nM | 82.9% | 8.2 nM | 73 nM |  |  |  |  |  |  |  | 47% | Ki (Histone deacetylase 8 [1]): 5.5 nM; Activity [4]: Active; inhibition [12]: Active
2 | COc1cccc2c1C(=O)c1c(O)c3c(c(O)c1C2=O)C[C@@](O)(C(C)=O)C[C@@H]3O[C@H]1C[C@H](N)[C@H](O)[C@H](C)O1 [DAUNORUBICIN] |  |  |  |  |  |  |  |  |  |  |  |  |  |  |  |  |  |  |  |  | IC50 (HEK293 [15]): 1200 nM

Continued, in another order:

Row | IC50 (Histone deacetylase 4) | IC50 (Histone deacetylase 11) | remaining at 72 h [2] | IC50 (Histone deacetylase 3 [5]) | IC50 (Histone deacetylase 2 [6]) | remaining at 12 h [7] | remaining at 48 h [8] | remaining at 6 h [9] | IC50 [10] | remaining at 24 h [11] | IC50 (Histone deacetylase 8 [13]) | IC50 (Histone deacetylase 1 [14]) | inhibition (Histone deacetylase 2 [16]) | inhibition (Histone deacetylase 3 [17]) | inhibition [18] | inhibition (Histone deacetylase 1 [19]) | inhibition (Histone deacetylase 3 [20]) | inhibition [21] | inhibition (Histone deacetylase 1 [22]) | Compound | Cell viability (HEK293 [3]) | further results
3 |  |  |  |  |  |  |  |  |  |  |  |  | 5% | 9% | 100% | 35% | 42% | 2% | 9% | CCCCCCNNC(=O)c1ccc(C)c(NCc2ccccc2)c1 | 41.7% | inhibition (Histone deacetylase 2 [23]): 26%
4 | 990 nM | 1800 nM | 86.8% | 91 nM | 630 nM | 97.3% | 90.4% | 98.3% | > 20000 nM | 94.9% | 700 nM | 1600 nM |  |  |  |  |  |  |  | CCCNNC(=O)c1ccc(-c2ccc(CNC(C)=O)cc2)cc1 | 83.9% | 
5 |  |  |  |  |  |  |  |  |  |  |  |  | 39% | 41% | 89% | 85% | 87% | 51% | 51% | CCCNNC(=O)c1cnc(NCCc2ccccc2)nc1 | 80.5% | inhibition (Histone deacetylase 2 [23]): 90%

Source: ChEMBL document CHEMBL5150060 (J Med Chem, 2022)
